Among the data in patent US5340816A, “Hydroxymethyl(methylenecyclopentyl) purines and pyrimidines” (E. R. Squibb & Sons, Inc., priority 1993, dated 1994) are IC50, inhibition and cytotoxicity values, retold here.

The subject of one series is HSV-1. The series is described as follows: HSV-1 antiviral plaque reduction assay in WI-38 cell culture monolayers. Type of series: cell-based, herpes simplex virus type 1, strain Schooler. Conditions: Human alphaherpesvirus 1, 96 h, WI-38 cells, 4 days at 37° C., read-out: ID50 for HSV-1. The procedure:
(§1) Assays were performed in cell culture systems to determine the concentrations of compounds that are effective in preventing several kinds of viral infections.
(§2) HSV-1 (herpes simplex virus type 1, strain Schooler), HSV-2 (herpes simplex virus type 2, strain 186), VZV (varicella zoster virus, strain ELLEN), HCMV (human cytomegalovirus, strain AD 169 HIV (human immununodeficiency virus, strain HTLV-IIIB).
(§3) HSV-1, HSV-2, HCMV and VZV antiviral assays: Virus was adsorbed to WI-38 cell culture monolayers in 6 well culture plates (Costar, Cambridge, Mass.) for 1 hour prior to addition of maintenance medium containing duplicate dilutions of the test compound. Inhibition of plaque development was evaluated on fixed and stained monolayers after 4 days incubation at 37° C. for HSV-1 and HSV-2, and after 5-7 days incubation at 37° C. for HCMV and VZV. ID50 values were determined from the drug concentration which conferred at least a 50% plaque reduction compared to virus controls.
(Plaques are areas of infected cells; plaque reduction assays count them against a control.)

Another series has as its system HSV-2. The series is described as follows: HSV-2 antiviral plaque reduction assay in WI-38 cell culture monolayers. Type of series: cell-based, herpes simplex virus type 2, strain 186. Conditions: Human alphaherpesvirus 2, 96 h, WI-38 cells, 4 days at 37° C., read-out: ID50 for HSV-2. The protocol: as §1, §2, §3
The next series concerns VZV. The series is described as follows: VZV antiviral plaque reduction assay in WI-38 cell culture monolayers. Type of series: cell-based, varicella zoster virus, strain ELLEN. Conditions: Human alphaherpesvirus 3, WI-38 cells, 5-7 days at 37° C., read-out: ID50 for VZV. The procedure:
as §1, §2, §3

The subject of another series is HCMV. As to the kind of experiment: HCMV antiviral plaque reduction assay in WI-38 cell culture monolayers. Conditions: Human betaherpesvirus 5, WI-38 cells, 5-7 days at 37° C., read-out: ID50 for HCMV. Type of series: cell-based, human cytomegalovirus, strain AD 169. The protocol: as §1, §2, §3
In a further series the test system is HIV. The series is described as follows: HIV antiviral assay (reduction of viral cytopathic effect in MT-2 cells, XTT-PMS). The series is classed as cell-based, human immununodeficiency virus, strain HTLV-IIIB. Conditions: Human immunodeficiency virus 1, MT2, 168 h, 7 days, read-out: reduction in viral CPE (HIV). The procedure:
as §1, §2
HIV antiviral assay: Suspensions of MT-2 cells (S. Harada, et al., Science, 229, 563 (1985)) were infected at a multiplicity of infection of 0.03 TLID50 /cell with HIV (strain HTLV-III B). […] Following incubation, viable cell numbers were counted in each well using a colorimetric assay following incubation of cells with XTT-PMS solution (XTT tetrazolium reagent plus phenazine methosulfate PMS).
(§4) Percent reduction of viral cytopathic effect (CPE) in drug treated compared to untreated virus infected cells, and percent reduction of cell viability in drug treated uninfected cells compared to untreated controls were calculated and plotted versus the drug concentrations tested. […]

The nature of series [1]: Reduction of cell viability in uninfected MT-2 cells (XTT-PMS). To be noted: human, 7 days. The series is classed as cell-based. The protocol:
HIV antiviral assay: Suspensions of MT-2 cells (S. Harada, et al., Science, 229, 563 (1985)) were infected at a multiplicity of infection of 0.03 TLID50 /cell with HIV (strain HTLV-III B). After adsorption for 1-2 hours at 37° C., infected cells were diluted in growth medium (RPMI 1640 containing the antibiotics penicillin plus streptomycin and 10% fetal calf serum) to give a final cell concentration of 1×10^4 viable cells/culture well in the presence of serial dilutions of the test compound, starting at 100 μg/ml. Triplicate samples at each drug concentration were used. Cultures of uninfected MT-2 cells were similarly prepared and incubated with serial dilutions of test compound in duplicate. All assays were performed in 96 well disposable cell culture plates. Untreated (infected and uninfected) cells were included as controls. […] Following incubation, viable cell numbers were counted in each well using a colorimetric assay following incubation of cells with XTT-PMS solution (XTT tetrazolium reagent plus phenazine methosulfate PMS).
as §4
On the technique in general: Formazan colour is commonly taken as a measure of viable cells.

As to `C=C1[C@H](CO)[C@@H](O)C[C@@H]1n1ccc(N)nc1=O`, the IC50 with HSV-1 was 4.2 to 8.4 µM; in the series with HSV-2, 2.1 to 4.2 µM; in the series with VZV, 4.2 to 42 µM; in the series with HCMV it was 2.1 to 4.2 µM.

`C=C1[C@H](CO)[C@@H](O)C[C@@H]1n1cc(/C=C/I)c(=O)[nH]c1=O`: the IC50 in the series on HSV-1 is 0.5 to 1.3 µM; in the series with HSV-2 it was 13 to 26 µM; in the series with VZV, 0.05 to 0.14 µM; in the series with HCMV, greater than 260 µM.

With `C=C1[C@H](CO)[C@@H](O)C[C@@H]1n1cnc2c(N)ncnc21` [[1R-(1α,3α,5β)]-3-(6-Amino-9H-purin-9-yl)-5-hydroxy-2-methylenecyclopentanemethanol], the IC50 in the series on HSV-1 was 191 to 383 µM; in the series with HSV-2, 191 to 383 µM; in the series on VZV, greater than 96 µM; in the series on HCMV it was greater than 38 µM. Further, the inhibition at 27 µM with HIV (at 27 μM) stood at 50%. The compound also came in with a cytotoxicity at 168 h, 27 µM in series [1] (at 27 μM) of 23%.

Consider `C=C1[C@H](CO)[C@@H](O)C[C@@H]1n1cc(I)c(=O)[nH]c1=O` [[1S-(1α,3α,4β)]-1-[4-Hydroxy-3-(hydroxymethyl)-2-methylenecyclopentyl]-5-iodo-2,4(1H,3H)pyrimidinedione], for which the IC50 with HSV-1 was 6 to 14 µM; in the series with HSV-2, greater than 275 µM; in the series with VZV, 68 to 137 µM; in the series on HCMV it was 68 to 137 µM.

`C=C1[C@H](CO)[C@@H](O)C[C@@H]1n1cc(C)c(=O)[nH]c1=O` [[1S-(1α,3α,4β)]-1-[4-Hydroxy-3-(hydroxymethyl)-2-methylenecyclopentyl]-5-methyl-2,4(1H,3H)-pyrimidinedione]: the IC50 in the series on HSV-1 is 8 to 20 µM; with HSV-2, 40 to 100 µM; in the series on VZV it was 40 to 400 µM; in the series on HCMV, no less than 396 µM.

`C=C1[C@H](CO)[C@@H](O)C[C@@H]1n1cnc2c(=O)[nH]c(N)nc21` [[1S-(1α,3α,4β)]-2-Amino-1,9-dihydro-9-[4-hydroxy-3-(hydroxymethyl)-2-methylenecyclopentyl]-6H-purin-6-one]: the IC50 is 3.6 µM in the series with HSV-1, 7.2 to 18 µM with HSV-2, 18 to 36 µM in the series on VZV and 90 µM in the series with HCMV. Further, in the series with HIV (at 12 μM), the inhibition at 12 µM worked out at 41%. In series [1] (at 12 μM), this compound gave a cytotoxicity at 168 h, 12 µM of 4%.

On to `C=C1[C@H](CO)[C@@H](O)C[C@@H]1n1cc(/C=C/Br)c(=O)[nH]c1=O` [[1S-[1α(E),3α,4β)]-5-(2-Bromoethenyl)-1-[4-hydroxy-3-(hydroxymethyl)-2-methylenecyclopentyl]-2,4(1H,3H)-pyrimidinedione], for which the IC50 in the series with HSV-1 is 0.6 to 1.5 µM; with HSV-2 it was 29 to 73 µM; in the series on VZV, 0.3 to 0.6 µM; in the series on HCMV, 291 µM.

As for `C=C1[C@H](CO)[C@@H](O)C[C@@H]1n1cc(/C=C/Cl)c(=O)[nH]c1=O` [[1S-[1α(E),3α,4β]]-5-(2-Chloroethenyl)-1-[4-hydroxy-3-(hydroxymethyl)-2-methylenecyclopentyl]-2,4(1H,3H)-pyrimidinedione], the IC50 in the series on HSV-1 was 0.07 to 0.16 µM; in the series with HSV-2, 2 µM; in the series on VZV it was 1.7 µM.
